Reference: PubChem BioAssay (NCI)
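Abbreviation: GI50, concentration required for 50% inhibition of growth. The concentration for full growth arrest is given as TGI.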

Columns and labels:
Experiment in all cases: growth of human tumour cells (NCI), 384-well format
[1] = system: MDA-MB-231 breast
[2] = system: SK-OV-3 ovarian
[3] = system: RPMI-8226 leukemia
[4] = system: HCC-2998 colon
[5] = system: K-562 leukemia
[6] = system: OVCAR-4 ovarian
[7] = system: NCI-H23 lung
[8] = system: OVCAR-8 ovarian
[9] = system: HOP-62 NSCLC
[10] = system: HOP-92 NSCLC
[11] = system: RXF 393 renal
[12] = system: MALME-3M melanoma
[13] = system: NCI-H226 lung
[14] = system: SF-268 CNS
[15] = system: CAKI-1 renal
[16] = system: SR leukemia
[17] = system: UACC-257 melanoma
[18] = system: A549 NSCLC
[19] = system: M14 melanoma
[20] = system: T-47D breast
[21] = system: LOX IMVI melanoma
[22] = system: HS 578T breast
[23] = system: SNB-19 CNS
[24] = system: DU-145 prostate
[25] = system: SK-MEL-5 melanoma
[26] = system: SNB-75 CNS
[27] = system: HCT-15 colon
[28] = system: PC-3 prostate
[29] = system: EKVX NSCLC
[30] = system: MDA-MB-435 melanoma
[31] = system: MDA-MB-468 breast
[32] = system: SW-620 colon
[33] = system: UACC-62 melanoma
[34] = system: SK-MEL-28 melanoma
[35] = system: HT29 colon
[36] = system: NCI-H460 NSCLC
[37] = system: KM12 colon
[38] = system: SF-295 CNS
[39] = system: MCF7 breast
[40] = system: SF-539 CNS
[41] = system: NCI-H522 lung
[42] = system: NCI-H322M lung
[43] = system: OVCAR-5 ovarian
[44] = system: MOLT-4 leukemia
[45] = system: NCI/ADR-RES ovarian
[46] = system: OVCAR-3 ovarian
[47] = system: CCRF-CEM leukemia
[48] = system: ACHN renal
[49] = system: BT-549 breast
[50] = system: 786-0 renal
[51] = system: A498 renal
[52] = system: TK-10 renal
[53] = system: COLO 205 colon
[54] = system: IGROV1 ovarian
[55] = system: SN12C renal
[56] = system: HL-60(TB) leukemia
[57] = system: UO-31 renal
[58] = system: HCT-116 colon
[59] = system: U251 glioblastoma

With `Cc1cc2ncnn2cc1Nc1ncc2c(n1)n(C1CCOCC1)c(=O)n2C` the GI50 [1] was 7.65 µM, the TGI [1] was over 100 µM and the GI50 [2] was 6.16 µM. It also gave a TGI [2] of over 100 µM, a GI50 [3] of 1.44 µM and a TGI [3] of 3.98 µM. For the same compound, the GI50 [4] was 38.2 µM, the TGI [4] was over 100 µM and the GI50 [5] was over 100 µM. It also gave a TGI [5] of over 100 µM, a GI50 [6] of 8.13 µM and a TGI [6] of over 100 µM. The GI50 [7] was 26.5 µM, the TGI [7] was over 100 µM and the GI50 [8] was 50.5 µM. It also gave a TGI [8] of over 100 µM, a GI50 [9] of 22.2 µM and a TGI [9] of over 100 µM. The GI50 [10] was 6.69 µM, the TGI [10] was over 100 µM and the GI50 [11] was 49.6 µM. It also gave a TGI [11] of over 100 µM, a GI50 [12] of 4.21 µM and a TGI [12] of 61.9 µM. The GI50 [13] was 10.5 µM, the TGI [13] was over 100 µM and the GI50 [14] was over 100 µM. For the same compound, the TGI [14] was over 100 µM, the GI50 [15] was 16.5 µM and the TGI [15] was over 100 µM. It also gave a GI50 [16] of 4.11 µM, a TGI [16] of over 100 µM and a GI50 [17] of over 100 µM. The TGI [17] was over 100 µM, the GI50 [18] was 12.1 µM and the TGI [18] was over 100 µM. For the same compound, the GI50 [19] was 19.3 µM, the TGI [19] was over 100 µM and the GI50 [20] was 1.7 µM. It also gave a TGI [20] of 7.63 µM, a GI50 [21] of 14.4 µM and a TGI [21] of over 100 µM. It also gave a GI50 [22] of 4.78 µM, a TGI [22] of 37.9 µM and a GI50 [23] of over 100 µM. For the same compound, the TGI [23] was over 100 µM, the GI50 [24] was 28.8 µM and the TGI [24] was over 100 µM. For the same compound, the GI50 [25] was 15.5 µM, the TGI [25] was over 100 µM and the GI50 [26] was 6.38 µM. The TGI [26] was over 100 µM, the GI50 [27] was 12 µM and the TGI [27] was over 100 µM. It also gave a GI50 [28] of 8.76 µM, a TGI [28] of over 100 µM and a GI50 [29] of 15.6 µM. It also gave a TGI [29] of over 100 µM, a GI50 [30] of 41.4 µM and a TGI [30] of over 100 µM. The GI50 [31] was 5.36 µM, the TGI [31] was 52.7 µM and the GI50 [32] was over 100 µM. For the same compound, the TGI [32] was over 100 µM, the GI50 [33] was 21.2 µM and the TGI [33] was over 100 µM. It also gave a GI50 [34] of 22.4 µM, a TGI [34] of over 100 µM and a GI50 [35] of 32.9 µM. For the same compound, the TGI [35] was over 100 µM, the GI50 [36] was 4.88 µM and the TGI [36] was over 100 µM. For the same compound, the GI50 [37] was 18 µM, the TGI [37] was over 100 µM and the GI50 [38] was 6.33 µM. It also gave a TGI [38] of over 100 µM, a GI50 [39] of 4.64 µM and a TGI [39] of over 100 µM. It also gave a GI50 [40] of 58.2 µM, a TGI [40] of over 100 µM and a GI50 [41] of 9.5 µM. For the same compound, the TGI [41] was over 100 µM, the GI50 [42] was 18.8 µM and the TGI [42] was over 100 µM. For the same compound, the GI50 [43] was 11.9 µM, the TGI [43] was over 100 µM and the GI50 [44] was 5.53 µM. The TGI [44] was 33.8 µM, the GI50 [45] was over 100 µM and the TGI [45] was over 100 µM. The GI50 [46] was 14.5 µM, the TGI [46] was over 100 µM and the GI50 [47] was 3.21 µM. For the same compound, the TGI [47] was 17.5 µM, the GI50 [48] was 21.5 µM and the TGI [48] was over 100 µM. The GI50 [49] was 24.2 µM, the TGI [49] was over 100 µM and the GI50 [50] was 36.4 µM. It also gave a TGI [50] of over 100 µM, a GI50 [51] of 2.66 µM and a TGI [51] of 31.3 µM. It also gave a GI50 [52] of 74.7 µM, a TGI [52] of over 100 µM and a GI50 [53] of 17.1 µM. For the same compound, the TGI [53] was over 100 µM, the GI50 [54] was 4.91 µM and the TGI [54] was 32.9 µM. For the same compound, the GI50 [55] was 10.4 µM, the TGI [55] was over 100 µM and the GI50 [56] was 35.2 µM. For the same compound, the TGI [56] was over 100 µM, the GI50 [57] was over 100 µM and the TGI [57] was over 100 µM.
With `Cc1ccc(NC(=O)c2cccc(C(C)(C)C#N)c2)cc1Nc1ccc2ncn(C)c(=O)c2c1` the GI50 [1] was 0.036 µM, the TGI [1] was 27.3 µM and the GI50 [2] was 4.9 µM. The TGI [2] was over 100 µM, the GI50 [3] was 1.1 µM and the TGI [3] was 3.33 µM. The GI50 [58] was 0.136 µM, the TGI [58] was 13.4 µM and the GI50 [4] was 0.0525 µM. The TGI [4] was 1.84 µM, the GI50 [5] was 0.232 µM and the TGI [5] was 1.06 µM. For the same compound, the GI50 [6] was 5.43 µM, the TGI [6] was over 100 µM and the GI50 [59] was 4.36 µM. For the same compound, the TGI [59] was over 100 µM, the GI50 [7] was 0.048 µM and the TGI [7] was 1.43 µM. It also gave a GI50 [8] of 2.85 µM, a TGI [8] of over 100 µM and a GI50 [9] of 1.8 µM. It also gave a TGI [9] of over 100 µM, a GI50 [10] of 0.593 µM and a TGI [10] of 2.55 µM. The GI50 [11] was 5.05 µM, the TGI [11] was over 100 µM and the TGI [12] was 0.0178 µM. It also gave a GI50 [13] of 2.01 µM, a TGI [13] of over 100 µM and a GI50 [14] of 4.8 µM. For the same compound, the TGI [14] was over 100 µM, the GI50 [15] was 0.343 µM and the TGI [15] was over 100 µM. For the same compound, the GI50 [16] was 0.153 µM, the TGI [16] was 0.908 µM and the GI50 [18] was 3.11 µM. The TGI [18] was over 100 µM, the GI50 [19] was 0.0119 µM and the TGI [19] was 0.106 µM. For the same compound, the GI50 [20] was 4.42 µM, the TGI [20] was over 100 µM and the GI50 [21] was 0.0358 µM. It also gave a TGI [21] of 1.34 µM, a GI50 [22] of 1.92 µM and a TGI [22] of 9.66 µM. It also gave a GI50 [23] of 4.82 µM, a TGI [23] of over 100 µM and a GI50 [24] of 3.63 µM. It also gave a TGI [24] of over 100 µM, a GI50 [25] of 0.0419 µM and a TGI [25] of 1.78 µM. The GI50 [26] was 7.19 µM, the TGI [26] was over 100 µM and the GI50 [27] was 2.91 µM. For the same compound, the TGI [27] was over 100 µM, the GI50 [28] was 8.34 µM and the TGI [28] was over 100 µM. It also gave a GI50 [29] of 6.79 µM, a TGI [29] of over 100 µM and a GI50 [30] of 0.0617 µM. For the same compound, the TGI [30] was over 100 µM, the GI50 [31] was 3.53 µM and the TGI [31] was 44.1 µM. It also gave a GI50 [32] of 0.798 µM, a TGI [32] of over 100 µM and a GI50 [33] of 0.0105 µM. For the same compound, the TGI [33] was 0.13 µM, the GI50 [34] was 0.0122 µM and the TGI [34] was 0.0749 µM. It also gave a GI50 [35] of 0.0579 µM, a TGI [35] of over 100 µM and a GI50 [36] of 1.47 µM. The TGI [36] was over 100 µM, the GI50 [37] was 0.803 µM and the TGI [37] was over 100 µM. For the same compound, the GI50 [38] was 4.63 µM, the TGI [38] was over 100 µM and the GI50 [39] was 5.97 µM. It also gave a TGI [39] of over 100 µM, a GI50 [40] of 7.1 µM and a TGI [40] of over 100 µM. For the same compound, the GI50 [41] was 4.09 µM, the TGI [41] was over 100 µM and the GI50 [42] was 2.62 µM. It also gave a TGI [42] of over 100 µM, a GI50 [44] of 1.86 µM and a TGI [44] of 6.08 µM. It also gave a GI50 [45] of 3.06 µM, a TGI [45] of 14.1 µM and a GI50 [46] of 3.22 µM. For the same compound, the TGI [46] was over 100 µM, the GI50 [47] was 2.19 µM and the TGI [47] was 9.99 µM. It also gave a GI50 [48] of 2.22 µM, a TGI [48] of over 100 µM and a GI50 [49] of 6.99 µM. The TGI [49] was over 100 µM, the GI50 [50] was 4.85 µM and the TGI [50] was over 100 µM. The GI50 [51] was 5.55 µM, the TGI [51] was over 100 µM and the GI50 [52] was 2.92 µM. It also gave a TGI [52] of 60.6 µM, a GI50 [53] of 0.0246 µM and a TGI [53] of 8.52 µM. The GI50 [54] was 0.935 µM, the TGI [54] was 7 µM and the GI50 [55] was 0.698 µM. It also gave a TGI [55] of over 100 µM, a GI50 [56] of 0.0135 µM and a TGI [56] of 0.148 µM. The GI50 [57] was 0.527 µM and the TGI [57] was 5.68 µM.
